Results published in article PMC12298351, “Novel 3,19-(N-Phenyl-3-(4-fluorophenyl)-pyrazole) Acetal of Andrographolide Promotes Cell Cycle Arrest and Apoptosis in MDA-MB-231 Breast Cancer Cells” (Pharmaceuticals, 2025).

Experiments:
HCT-116 = format: cell-based; settings: HCT-116, Colon
SNB-19 = format: cell-based; settings: SNB-19, CNS; for CC50: read-out: 50% lethal concentration (LC50)
OVCAR-4 = format: cell-based; settings: OVCAR-4, Ovarian; for CC50: read-out: 50% lethal concentration (LC50)
TK-10 = format: cell-based; settings: TK-10, Renal; for CC50: read-out: 50% lethal concentration (LC50)
CCRF-CEM = settings: for CC50: read-out: 50% lethal concentration (LC50), Leukemia
K-562 = settings: K-562, Leukemia; for CC50: read-out: 50% lethal concentration (LC50)
RPMI-8226 = settings: RPMI-8226, Leukemia; for CC50: read-out: 50% lethal concentration (LC50)
EKVX = settings: for Total growth inhibition (TGI): Non-Small Cell Lung; for GI50: Non-Small-Cell Lung; for CC50: read-out: 50% lethal concentration (LC50), Non-Small Cell Lung
HOP-92 = settings: for GI50: HOP-92, Non-Small-Cell Lung
NCI-H226 = settings: for Total growth inhibition (TGI) / CC50: NCI-H226, Non-Small Cell Lung; for GI50: NCI-H226, Non-Small-Cell Lung; for CC50: read-out: 50% lethal concentration (LC50)
NCI-H460 = settings: for Total growth inhibition (TGI) / CC50: NCI-H460, Non-Small Cell Lung; for GI50: NCI-H460, Non-Small-Cell Lung; for CC50: read-out: 50% lethal concentration (LC50)
NCI-H522 = settings: for Total growth inhibition (TGI) / CC50: NCI-H522, Non-Small Cell Lung; for GI50: NCI-H522, Non-Small-Cell Lung; for CC50: read-out: 50% lethal concentration (LC50)
COLO 205 = settings: COLO 205, Colon
HCT-15 = settings: HCT-15, Colon; for CC50: read-out: 50% lethal concentration (LC50)
SF-295 = settings: SF-295, CNS; for CC50: read-out: 50% lethal concentration (LC50)
SF-539 = settings: SF-539, CNS; for CC50: read-out: 50% lethal concentration (LC50)
SNB-75 = settings: SNB-75, CNS; for CC50: read-out: 50% lethal concentration (LC50)
MDA-MB-435 = settings: MDA-MB-435, Melanoma; for CC50: read-out: 50% lethal concentration (LC50)
UACC-257 = settings: UACC-257, Melanoma
UACC-62 = settings: UACC-62, Melanoma; for CC50: read-out: 50% lethal concentration (LC50)
OVCAR-3 = settings: OVCAR-3, Ovarian; for CC50: read-out: 50% lethal concentration (LC50)
OVCAR-8 = settings: OVCAR-8, Ovarian; for CC50: read-out: 50% lethal concentration (LC50)
NCI/ADR-RES = settings: for GI50 / Total growth inhibition (TGI): Ovarian; for CC50: read-out: 50% lethal concentration (LC50), Ovarian
SK-OV-3 = settings: SK-OV-3, Ovarian; for CC50: read-out: 50% lethal concentration (LC50)
786-0 = settings: 786-0, Renal; for CC50: read-out: 50% lethal concentration (LC50)
A498 = settings: A498, Renal; for CC50: read-out: 50% lethal concentration (LC50)
RXF 393 = settings: RXF 393, Renal; for CC50: read-out: 50% lethal concentration (LC50)
SN12C = settings: for GI50 / Total growth inhibition (TGI): Renal; for CC50: read-out: 50% lethal concentration (LC50), Renal
UO-31 = settings: UO-31, Renal; for CC50: read-out: 50% lethal concentration (LC50)
PC-3 = settings: PC-3, Prostate; for CC50: read-out: 50% lethal concentration (LC50)
HS 578T = settings: for GI50 / Total growth inhibition (TGI): Breast; for CC50: read-out: 50% lethal concentration (LC50), Breast

C=C1CCC2C3(C)COC(c4cn(-c5ccccc5)nc4-c4cccc(Cl)c4)OC3CCC2(C)C1CC=C1C(=O)OCC1O (centres unmarked) [1d]
GI50 (HCT-116): 1.04 µM | Total growth inhibition (TGI) (HCT-116): 3.48 µM | CC50 (HCT-116; read-out: 50% lethal concentration (LC50)): 45.2 µM | GI50 (SNB-19): 2.24 µM | Total growth inhibition (TGI) (SNB-19): 6.04 µM | CC50 (SNB-19): 54.8 µM | GI50 (OVCAR-4): 2.09 µM | CC50 (OVCAR-4): > 100 µM | GI50 (TK-10): 2.14 µM | Total growth inhibition (TGI) (TK-10): 4.56 µM | CC50 (TK-10): 9.71 µM | GI50 (CCRF-CEM; Leukemia): 1.32 µM | Total growth inhibition (TGI) (CCRF-CEM; Leukemia): 16.3 µM | CC50 (CCRF-CEM): > 100 µM | GI50 (K-562): 2.41 µM | CC50 (K-562): > 100 µM | GI50 (RPMI-8226): 1.38 µM | Total growth inhibition (TGI) (RPMI-8226): > 100 µM | CC50 (RPMI-8226): > 100 µM | Total growth inhibition (TGI) (EKVX): 4.95 µM | GI50 (EKVX): 2.21 µM | CC50 (EKVX): > 100 µM | Total growth inhibition (TGI) (HOP-92; HOP-92, Non-Small Cell Lung): 3.11 µM | GI50 (HOP-92): 1.56 µM | CC50 (HOP-92; read-out: 50% lethal concentration (LC50), HOP-92, Non-Small Cell Lung): 6.2 µM | Total growth inhibition (TGI) (NCI-H226): 3.37 µM | GI50 (NCI-H226): 1.76 µM | CC50 (NCI-H226): 6.46 µM | Total growth inhibition (TGI) (NCI-H460): 3.34 µM | GI50 (NCI-H460): 1.68 µM | CC50 (NCI-H460): 6.66 µM | Total growth inhibition (TGI) (NCI-H522): 2.95 µM | GI50 (NCI-H522): 1.54 µM | CC50 (NCI-H522): 5.65 µM | GI50 (COLO 205): 1.98 µM | Total growth inhibition (TGI) (COLO 205): 4.24 µM | GI50 (HCT-15): 1.58 µM | Total growth inhibition (TGI) (HCT-15): 3.47 µM | CC50 (HCT-15): 7.64 µM | GI50 (SF-295): 1.42 µM | Total growth inhibition (TGI) (SF-295): 2.75 µM | CC50 (SF-295): 5.36 µM | GI50 (SF-539): 1.63 µM | Total growth inhibition (TGI) (SF-539): 3.02 µM | CC50 (SF-539): 5.57 µM | GI50 (SNB-75): 1.12 µM | Total growth inhibition (TGI) (SNB-75): 3.14 µM | CC50 (SNB-75): 8.84 µM | GI50 (MDA-MB-435): 1.56 µM | Total growth inhibition (TGI) (MDA-MB-435): 3.19 µM | CC50 (MDA-MB-435): 6.49 µM | GI50 (UACC-257): 1.77 µM | Total growth inhibition (TGI) (UACC-257): 3.57 µM | GI50 (UACC-62): 1.71 µM | Total growth inhibition (TGI) (UACC-62): 3.42 µM | CC50 (UACC-62): 6.83 µM | GI50 (OVCAR-3): 1.6 µM | Total growth inhibition (TGI) (OVCAR-3): 3.09 µM | CC50 (OVCAR-3): 5.95 µM | GI50 (OVCAR-8): 1.53 µM | Total growth inhibition (TGI) (OVCAR-8): 3.44 µM | CC50 (OVCAR-8): > 100 µM | GI50 (NCI/ADR-RES): 1.88 µM | Total growth inhibition (TGI) (NCI/ADR-RES): 4.77 µM | CC50 (NCI/ADR-RES): > 100 µM | GI50 (SK-OV-3): 5.86 µM | Total growth inhibition (TGI) (SK-OV-3): 33.4 µM | CC50 (SK-OV-3): > 100 µM | GI50 (786-0): 2.31 µM | Total growth inhibition (TGI) (786-0): 6.1 µM | CC50 (786-0): 83.4 µM | GI50 (A498): 2.9 µM | Total growth inhibition (TGI) (A498): 11.4 µM | CC50 (A498): 38.1 µM | GI50 (RXF 393): 1.05 µM | Total growth inhibition (TGI) (RXF 393): 2.31 µM | CC50 (RXF 393): 5.07 µM | GI50 (SN12C): 1.65 µM | Total growth inhibition (TGI) (SN12C): 3.62 µM | CC50 (SN12C): 7.92 µM | GI50 (UO-31): 1.3 µM | Total growth inhibition (TGI) (UO-31): 2.71 µM | CC50 (UO-31): 5.63 µM | GI50 (PC-3): 2.07 µM | CC50 (PC-3): > 100 µM | GI50 (HS 578T): 1.91 µM | Total growth inhibition (TGI) (HS 578T): 4.85 µM | CC50 (HS 578T): > 100 µM

C=C1CCC2C3(C)COC(c4cn(-c5ccccc5)nc4-c4cccc(Br)c4)OC3CCC2(C)C1CC=C1C(=O)OCC1O (centres unmarked) [1e]
GI50 (HCT-116): 1.24 µM | Total growth inhibition (TGI) (HCT-116): 2.75 µM | GI50 (SNB-19): 2.17 µM | Total growth inhibition (TGI) (SNB-19): 5.24 µM | CC50 (SNB-19): 17.2 µM | GI50 (OVCAR-4): 2.49 µM | CC50 (OVCAR-4): > 100 µM | GI50 (TK-10): 2.12 µM | Total growth inhibition (TGI) (TK-10): 3.58 µM | CC50 (TK-10): 40.4 µM | GI50 (CCRF-CEM; Leukemia): 0.7 µM | CC50 (CCRF-CEM): > 100 µM | GI50 (K-562): 2.89 µM | Total growth inhibition (TGI) (K-562): > 100 µM | CC50 (K-562): > 100 µM | GI50 (RPMI-8226): 2.75 µM | Total growth inhibition (TGI) (RPMI-8226): > 100 µM | CC50 (RPMI-8226): > 100 µM | Total growth inhibition (TGI) (EKVX): 5.16 µM | GI50 (EKVX): 2.1 µM | CC50 (EKVX): > 100 µM | Total growth inhibition (TGI) (HOP-92; HOP-92, Non-Small Cell Lung): 3.41 µM | GI50 (HOP-92): 1.75 µM | Total growth inhibition (TGI) (NCI-H226): 3.43 µM | GI50 (NCI-H226): 1.75 µM | CC50 (NCI-H226): 6.71 µM | Total growth inhibition (TGI) (NCI-H460): 3.49 µM | GI50 (NCI-H460): 1.78 µM | CC50 (NCI-H460): 6.83 µM | Total growth inhibition (TGI) (NCI-H522): 2.9 µM | GI50 (NCI-H522): 1.5 µM | CC50 (NCI-H522): 5.62 µM | GI50 (COLO 205): 2.09 µM | Total growth inhibition (TGI) (COLO 205): 4.36 µM | GI50 (HCT-15): 1.6 µM | Total growth inhibition (TGI) (HCT-15): 3.55 µM | CC50 (HCT-15): 7.85 µM | GI50 (SF-295): 1.36 µM | Total growth inhibition (TGI) (SF-295): 2.68 µM | CC50 (SF-295): 5.3 µM | GI50 (SF-539): 1.78 µM | Total growth inhibition (TGI) (SF-539): 3.2 µM | CC50 (SF-539): 5.74 µM | GI50 (SNB-75): 1.57 µM | Total growth inhibition (TGI) (SNB-75): 5.32 µM | CC50 (SNB-75): 22.9 µM | GI50 (MDA-MB-435): 1.72 µM | Total growth inhibition (TGI) (MDA-MB-435): 3.6 µM | CC50 (MDA-MB-435): 7.51 µM | GI50 (UACC-257): 1.77 µM | Total growth inhibition (TGI) (UACC-257): 3.45 µM | GI50 (UACC-62): 1.68 µM | Total growth inhibition (TGI) (UACC-62): 3.4 µM | CC50 (UACC-62): 6.9 µM | GI50 (OVCAR-3): 1.69 µM | Total growth inhibition (TGI) (OVCAR-3): 3.21 µM | CC50 (OVCAR-3): 6.08 µM | GI50 (OVCAR-8): 1.76 µM | Total growth inhibition (TGI) (OVCAR-8): 4.22 µM | CC50 (OVCAR-8): > 100 µM | GI50 (NCI/ADR-RES): 2.15 µM | Total growth inhibition (TGI) (NCI/ADR-RES): 5.37 µM | CC50 (NCI/ADR-RES): > 100 µM | GI50 (SK-OV-3): 4.16 µM | Total growth inhibition (TGI) (SK-OV-3): 48.3 µM | CC50 (SK-OV-3): > 100 µM | GI50 (786-0): 2.59 µM | CC50 (786-0): > 100 µM | GI50 (A498): 4.33 µM | Total growth inhibition (TGI) (A498): 8.1 µM | CC50 (A498): 44 µM | GI50 (RXF 393): 1.18 µM | Total growth inhibition (TGI) (RXF 393): 2.93 µM | CC50 (RXF 393): 5.51 µM | GI50 (SN12C): 1.57 µM | Total growth inhibition (TGI) (SN12C): 2.55 µM | CC50 (SN12C): 8.12 µM | GI50 (UO-31): 1.45 µM | Total growth inhibition (TGI) (UO-31): 5.34 µM | CC50 (UO-31): 6.83 µM | GI50 (PC-3): 2.29 µM | CC50 (PC-3): > 100 µM | GI50 (HS 578T): 1.94 µM | Total growth inhibition (TGI) (HS 578T): 5.19 µM | CC50 (HS 578T): > 100 µM
